Results taken from paper PMC10787068, “Targeting the Mitochondrial Chaperone TRAP1 Alleviates Vascular Pathologies in Ischemic Retinopathy” (Advanced Science, 2023).
“Also recorded” adds a separate entry of the source.

Assays:
[1] = Normal cell cytotoxicity in primary Müller cells (trypan blue staining); format: cell-based; conditions: mouse, primary Müller cells from mouse retina, 24 hr under hypoxia, n = 4, mean ± SEM
Description: (§1) Mouse primary Müller cells were isolated as reported previously.^[ [43] ^] In brief, retinas were isolated from P5–P7 mice and dissociated using a Papain Dissociation Kit (Worthington Industries; Columbus, OH, USA). Collected retinal cells were incubated on a plate coated with 0.1% gelatin (Sigma), and the culture media (DMEM supplemented with 10% FBS and 1% penicillin‐streptomycin) was changed once every 2 days. Cells were subcultured into a new plate and incubated for another 7 days. Adherent cells were largely primary Müller cells, as confirmed by immunocytochemical analysis using an anti‐glutamine synthetase antibody (Millipore). […]
(§2) bar, 500 μm. B) Quantification of avascular and neovascular tuft areas in OIR mice intravitreally injected with MitoQ (n = 5 mice/group). […] Harvested retinal samples were whole-mounted and analyzed as in (A). […]
(§3) Scale bar, 500 μm. D) Quantification of avascular and neovascular tuft areas in OIR mice topically treated with MitoQ (n = 6 mice/group). […]
(§4) their cytotoxic activities were analyzed in four independent experiments by trypan blue staining. The calculated IC50 values are presented in the normal cell cytotoxicity column in Table 1. […] A 3D culture of human corneal epithelium (MCTT HCE) was incubated with 2 mM TRAP1 inhibitors and analyzed by H&E staining.
(§5) The culture thickness (n = 5) was measured and analyzed (Table S1). […]

[2] = test system: mouse primary Müller cells; assay: as above; format: cell-based; conditions: 24 hr under hypoxia, n = 4, mean ± SEM
Description: as §1, §2, §3, §4, §5

[3] = Eye irritation test with MCTT HCE (OECD test guideline 492); format: cell-based, human; conditions: human; 3D culture MCTT HCE, TRAP1 inhibitors at 2 mM, WST-1 assay, n = 4, mean ± SEM; read-out: Percentage viability (%)
Description: (§6) An eye irritation test was performed using a 3D human corneal epithelial (HCE) model, called MCTT HCE (KeraSkin; Biosolution, Seoul, Republic of Korea), for OECD test guideline 492, following the manufacturer's instructions. In brief, HCE tissues were incubated overnight in medium provided by the supplier. Thereafter, 2 mM MitoQ, SB‐U014, and SB‐U015 were applied to the upper epithelial surface of HCE tissues and incubated for 10 min. After removing the drugs by washing the tissues with PBS, the tissues were further incubated for 16 h, and then subjected to the WST‐1 assay for viability assessment and fixed in 4% PFA for histological analysis. […]
as §4
(§7) The culture thickness (n = 5) was measured and analyzed (Table S1). […] After topical application of 2 mM MitoQ, SB-U014, or SB-U015 once daily for 6 days, the mouse cornea was harvested and analyzed by H&E staining. […]
(§8) A 3D culture of human corneal epithelium (MCTT HCE) was incubated with 2 mM TRAP1 inhibitors, and the percentage viability was analyzed by the WST-1 assay (n = 4). Absorbance was measured with a microplate reader. […]

[4] = test system: 3D human corneal epithelial (HCE) model, MCTT HCE; assay: as above; format: cell-based; conditions: 3D culture MCTT HCE, TRAP1 inhibitors at 2 mM, H&E staining images, n = 5, mean ± SEM
Description: as §6, §4, §7, §8

OIR mice = assay: Oxygen‐induced retinopathy (OIR) mouse model, retinal vasculature (CD31 whole‐mount); format: in vivo
Description: Figure 7 Normalized retinal vascularization upon topical application of TRAP1 inhibitors. A) HIF1α degradation induced by TRAP1 inhibitors. MIO‐M1 cells were incubated with various concentrations of TRAP1 inhibitors as indicated for 6 h under hypoxia and analyzed by western blotting. B) Quantification of HIF1α protein degradation. The HIF1α band intensities in western blot data obtained as in (A) were analyzed and compared. The data are mean ± SEM from four independent experiments. C) Vascular structure of P17 OIR mouse retinas after topical drug application. Vehicle and 2 mM TRAP1 inhibitors were topically administered to the left and right eyes, respectively, of OIR mice at P12 once per day for 5 days. At P17, mice were sacrificed and analyzed by whole‐mount staining with an anti‐CD31 antibody and confocal microscopy. Scale bar, 500 µm. D) Quantification of avascular areas and neovascular tuft. Retinal images collected as in (C) were quantitatively analyzed (n = 5 mice/group). Data information: Data are expressed as mean ± SEM. Student t‐test, ^*** P < 0.001; ^* […].
To induce OIR (Figure 1A), mouse pups were exposed to 75% oxygen at postnatal day 7 (P7) until P12 together with their mothers in a hyperoxic chamber (InVivo Cabinet Model 15; Coy Laboratory; Grass Lake, MI, USA). Hyperoxia‐exposed pups were returned to room air at P12 with nursing mothers until P17. At P17, mice were sacrificed, and eyes were enucleated.
For intravitreal injection, MitoQ was injected into the vitreous cavity using a Nanoliter 2000 microinjector (World Precision Instruments; Sarasota, FL, USA) fitted with glass capillary pipettes under anesthesia. In total, 1 µl MitoQ (0.1 mg/ml) was delivered into the right eye of an OIR mouse once at P12. The contralateral eye was injected with vehicle (0.1% DMSO prepared in distilled water) as a control. […]
Fixed eyes were dissected to isolate retinas under a microscope. […] Fluorescence images were acquired using an Axio Zoom fluorescence microscope (Zeiss; Oberkochen, Germany) or a LSM780 or LSM980 confocal microscope (Zeiss). […]

## COC1=C(OC)C(=O)C(CCCCCCCCCC[P+](c2ccccc2)(c2ccccc2)c2ccccc2)=C(C)C1=O [MitoQ, mitoquinone]
[1]
  IC50 at 24 h: 22 µM
[2]
  IC50: 22.5 ± 0.46 µM
[3]
  viability at 10 min, 2 mM: 63.47 ± 0.23%
[4]
  Thickness (μm): 53.43 ± 2.79 μm
OIR mice; intravitreal injection, 1 µl of 0.1 mg/ml once at P12, analysed at P17, n = 5 mice/group
  avascular and neovascular tuft areas in OIR mice: significantly reduced; also recorded: dramatically reduced
OIR mice; topical, 2 mM once per day for 5 days from P12, analysed at P17, n = 5 mice/group
  avascular and neovascular tuft areas in OIR mice: reduced
OIR mice; topical, 10 μl of 1 mM three times daily from P12 to P17, n = 6 mice/group
  avascular and neovascular tuft areas in OIR mice: reduced; also recorded: potent activity
